This is an account of results in US4902699A, “Oxime of 1, 2, 5, 6-tetrahydropyridine compounds their use as medicaments and the compositions containing them” (Roussel Uclaf, priority 1987, dated 1990).

A short description of one data set: Solubility. Format: physicochemical. As to conditions: for Solubility in water: H2O.
Another data set is described as follows: Acute toxicity, oral. The arrangement: species or system mice. The settings on record: mouse, in vivo, mortality during 7 days.
The test system of data set [1] is ileum isolated from guinea-pig. The data set can be described thus: Test of ileum isolated from guinea-pig, agonist (contracting) activity. As to conditions: Cavia porcellus; negative logarithm of the dose which produces 50% of the maximum effect; read-out: pD2 (converted). The method, then: Pieces of ileum are removed from guinea-pigs killed by decapitation. The isolated ileum is placed in 10 cm^3 of Tyrode solution at 37° C. and aerated with a mixture of oxygen (95%) and carbon dioxide gas (5%). The contractions due to the products are registered by means of a detector connected to a polygraph. The products to be tested are added at concentrations between 1.10^-3 M and 1.10^-8 M/l.
The products presenting a contracting effect are tested vis-a-vis atropine and hexamethonium in order to establish if the activity is of "muscarine" or "nicotine" type.
The agonist activity is expressed in pD2 (negative logarithm of the dose which produces 50% of the maximum effect).

The next data set can be described thus: Diarrhoeic activity. On the set-up: species or system mice. The settings on record: mouse, in vivo; oral route; dose which causes diarrhoea in 50% of the animals; read-out: DE50 (the source's name). As for the experimental part: The test is carried out on male mice (CD1 Charles Rivers) weighing […], after fasting for 6 hours. The product dissolved at 5% in methocel is administered by oral route by means of an oesophage probe.
Control animals receive only the excipient.
After treatment, the animals are placed separately in cages of which the base is covered with blotting paper, and they are put under observation for 30, 60, 120 and 180 minutes.
The sheets of absorbent paper are changed after each observation.
The consistency of the feces is evaluated according to the method of Randall and Baruth (Arch. Int. Pharmacodyn. 220, 94, 1976) according to the following scale of values.
1: feces slightly soft, with or without a damp halo
2: feces slightly soft, with a well defined circle of humidity.
3: feces soft with a large circle of humidity.
4: feces without consistency with a very large circle of humidity.
For each product, the dose is noted which causes diarrhoea in 50% of the animals according to the method of Miller and Tainter (Proc. Soc. Exp. Biol. Med., 57, 261, 1944).

In data set [2] the test system is male mice (CD1 Charles RAivers). The data set can be described thus: Hypothermic activity. Type of data set: in vivo. The settings on record: Mus musculus, read-out: Effective dose (-1° C.). The method, then:
(§1) The test is carried out on male mice (CD1 Charles RAivers) weighing 25-30 g, having fasted for 6 hours.
The temperature of the body is noted by means of a thermocouple inserted about 1.5 cm in the rectum and connected to an electric temperature recorder.
The products are administered by oral or sub-cutaneous route and the temperatures are noted at the instant 0 and at 30 minutes, 1 hour, 2 hours and 2 and a half hours after treatment.
The degree of hypothermia is evaluated as the difference between the treated animals and the controls, and the dose necessary to reduce the body temperature by 1° C. is noted.

The test system is the same in data set [3]. The data set can be described thus: Variation of the body temperature (duration of action). Type of data set: in vivo. As for the experimental part: as §1
The temperature of the body is noted by means of a thermocouple inserted about 1.5 cm in the rectum and connected to an electric temperature recorder. […]
The duration of action of the products is determined, using the doses able to reduce the temperature by 1° to 1.5° C.

For data set [4], the system named is central cholinergic system. The settings on record: cited from earlier work.
For data set [5], the system named is patients having a memory defect. The settings on record: injected by intravenous route; cited from earlier work.

Where a name gives a salt, the structure may show the parent alone. Read-outs that look alike come from different tables or passages of the source.

By LD50 is commonly meant the dose expected to kill half of the subjects tested. Lower therefore signals greater toxicity.

Protocol for Acute toxicity, oral: The test was carried out on male mice (CD1 Charles Rivers), of 22 to 24 g, having fasted for 16 hours. […] The mortality is noted during the 7 days following the treatment.

For `CON=CC1=CCCN(OC)C1` [Example 2, Hydrochloride of the methyl ether of 1-methoxy-1,2,5,6-tetrahydropyridin-3-carboxaldehyde oxime], in the data set “Solubility”, the “Solubility in 2N HCl” value is listed as “Soluble”, the “Solubility in 2N NaOH” value is “Soluble” and the Solubility in water entry was “Soluble”.
With `CON=CC1=CCCN(OC(C)=O)C1` [Example 3, Hydrochloride of the methyl ether of 1-acetoxy-1,2,5,6-tetrahydropyridin-3-carboxaldehyde oxime], the LD50 at 168 h in the data set “Acute toxicity, oral” amounted to 100 mg/kg. The EC50 in data set [1] is 12.6 µM. Further, in the data set “Diarrhoeic activity”, the ED50 is 0.5 mg/kg. Moreover, the ED (-1 C) is 0.22 mg/kg in data set [2] (O.R. (oral route)) and 0.2 mg/kg in data set [2] (SC.R (sub-cutaneous route)). The “Variations of the body temperature” value was -1.2 °C in data set [3] (os, 0.25 mg/kg, 30 min); -0.7 °C in data set [3] (os, 0.25 mg/kg, 60 min); “+0.1 °C” in data set [3] (os, 0.25 mg/kg, 120 min); “+0.1 °C” in data set [3] (os, 0.25 mg/kg, 180 min); -1.2 °C in data set [3] (sc, 0.25 mg/kg, 30 min); -0.8 °C in data set [3] (sc, 0.25 mg/kg, 60 min). In addition, the “Variations of the body temperature” value was “+0.1 °C” in data set [3] (sc, 0.25 mg/kg, 120 min) and “+0.1 °C” in data set [3] (sc, 0.25 mg/kg, 180 min). For the same compound, the “Solubility in 2N HCl” value in the data set “Solubility” was “soluble”. Besides, in the data set “Solubility”, the “Solubility in 2N NaOH” value is reported as “insoluble”. Besides, the Solubility in water entry in “Solubility” was “insoluble”.
The compound `C#CCON=CC1=CCCN(O)C1` [Example 4, Hydrochloride of the propargyl ether of 1-hydroxy-1,2,5,6-tetrahydropyridin-3-carboxaldehyde oxime] gave a median lethal dose (LD50) at 168 h in “Acute toxicity, oral” of 80 mg/kg. Besides, the EC50 in data set [1] was 5.75 µM. For the same compound, the ED50 in “Diarrhoeic activity” came out at 0.9 mg/kg. Moreover, the figures for the ED (-1 C) in data set [2] (O.R. (oral route)) and in data set [2] (SC.R (sub-cutaneous route)) were 0.48 mg/kg and 0.49 mg/kg, respectively. The “Variations of the body temperature” value was -1.6 °C in data set [3] (os, 0.75 mg/kg, 30 min); -1.0 °C in data set [3] (os, 0.75 mg/kg, 60 min); -0.1 °C in data set [3] (os, 0.75 mg/kg, 180 min); -1.4 °C in data set [3] (sc, 0.75 mg/kg, 30 min); -1.1 °C in data set [3] (sc, 0.75 mg/kg, 60 min); -0.1 °C in data set [3] (sc, 0.75 mg/kg, 120 min). Further, the “Solubility in 2N HCl” value in the data set “Solubility” is recorded as “Soluble”. Besides, the “Solubility in 2N NaOH” value in “Solubility” is “Soluble”. Moreover, in the data set “Solubility”, the Solubility in water result is “Soluble”.
Compound `CON=CC1=CCCN(OC(=O)Nc2ccc(OC)cc2)C1` [Example 16, Methyl ether of 1-paramethoxyphenylaminocarbonyloxy-1,2,5,6-tetrahydropyridin-3-carboxaldehyde oxime] yielded an LD50 at 168 h in the data set “Acute toxicity, oral” of 60 mg/kg. The EC50 in data set [1] was more than 100 µM. The ED50 in the data set “Diarrhoeic activity” is 6 mg/kg. Besides, the ED (-1 C) in data set [2] (O.R. (oral route)) came to 0.88 mg/kg; in data set [2] (SC.R (sub-cutaneous route)) it was 0.78 mg/kg. Further, the “Variations of the body temperature” value in data set [3] (os, 1. mg/kg, 30 min) is -1.1 °C; in data set [3] (os, 1. mg/kg, 60 min), -1.1 °C; in data set [3] (os, 1. mg/kg, 120 min) it was -0.1 °C; in data set [3] (sc, 1. mg/kg, 30 min), -1.2 °C; in data set [3] (sc, 1. mg/kg, 60 min), -1.5 °C; in data set [3] (sc, 1. mg/kg, 120 min), -0.3 °C. Besides, the “Variations of the body temperature” value in data set [3] (sc, 1. mg/kg, 180 min) is “+0.1 °C”.
As to `COC(=O)C1=CCCN(C)C1` [arecoline], the EC50 in data set [1] is 0.331 µM. Also, the ED50 in “Diarrhoeic activity” was found to be 35 mg/kg. For the same compound, the duration of action entry in data set [4] (in vivo) is recorded as “short duration of action”. Moreover, in data set [4] (oral route), the “activity by oral route” value was “very weak activity”. Also, the “effect on patients having a memory defect” value in data set [5] was “positive effect”.
